Assay results taken from ChEMBL document CHEMBL3286312, “Synthesis and structure-activity relationships of guaiane-type sesquiterpene lactone derivatives with respect to inhibiting NO production in lipopolysaccharide-induced RAW 264.7 macrophages” (Eur J Med Chem, 2014).

Legend:
[1] = Cytotoxicity against mouse RAW264.7 cells assessed as cell survival rate up to 25 uM after 18 hrs by MTT assay relative to control; type: cell-based; conditions: read-out: Survival
[2] = system: RAW264.7; test: Antiinflammatory activity against mouse RAW264.7 cells assessed as inhibition of LPS-induced NO production at 25 uM after 18 hrs by Griess method relative to control; type: functional; conditions: RAW264.7, 18 h
[3] = system: RAW264.7; test: Antiinflammatory activity against mouse RAW264.7 cells assessed as inhibition of LPS-induced NO production at after 18 hrs by Griess method relative to control; type: functional, cell-based; conditions: RAW264.7, 18 h
[4] = system: RAW264.7; test: Cytotoxicity against mouse RAW264.7 cells assessed as reduction in cell survival rate after 18 hrs by MTT assay relative to control; type: cell-based; conditions: RAW264.7, 18 h

| SMILES | viability at 18 h [1] | inhibition at 25 µM [2] | IC50 [3] | IC50 [4] |
| --- | --- | --- | --- | --- |
| CCCc1ccc(C(=O)O[C@H]2CC3C(=C2C)[C@H]2OC(=O)[C@@H](C)[C@@H]2CC[C@@]3(C)O)cc1 (stereo partly specified) | 73.4% | 30.6% |  |  |
| CCc1ccc(C(=O)O[C@H]2CC3C(=C2C)[C@H]2OC(=O)[C@@H](C)[C@@H]2CC[C@@]3(C)O)cc1 (stereo partly specified) | 85.2% | 26.3% |  |  |
| CSc1ccc(/C=C/C(=O)O[C@H]2CC3C(=C2C)[C@H]2OC(=O)[C@@H](C)[C@@H]2CC[C@@]3(C)O)cc1 (stereo partly specified) | 100% | 67.4% | 27.2 µM | > 100 µM |
| CC1=C2C(C[C@@H]1OC(=O)/C=C/c1ccc([N+](=O)[O-])cc1)[C@](C)(O)CC[C@H]1[C@H](C)C(=O)O[C@H]21 (stereo partly specified) | 92.5% | 45% |  |  |
| CCOc1ccc(/C=C/C(=O)O[C@H]2CC3C(=C2C)[C@H]2OC(=O)[C@@H](C)[C@@H]2CC[C@@]3(C)O)cc1 (stereo partly specified) | 35.6% | 26.9% |  |  |
| CC1=C2C(C[C@@H]1OC(=O)c1ccc3ccccc3c1)[C@](C)(O)CC[C@H]1[C@H](C)C(=O)O[C@H]21 (stereo partly specified) | 100% | 68.8% | 25.7 µM | 89.4 µM |
| CC1=C2C(C[C@@H]1OC(=O)c1ccncc1)[C@](C)(O)CC[C@H]1[C@H](C)C(=O)O[C@H]21 (stereo partly specified) | 100% | 2% |  |  |
| CC1=C2C(C[C@@H]1OC(=O)c1ccc(C#N)cc1)[C@](C)(O)CC[C@H]1[C@H](C)C(=O)O[C@H]21 (stereo partly specified) | 100% | 6.6% |  |  |
| CC1=C2C(C[C@@H]1OC(=O)c1ccc(C)cc1)[C@](C)(O)CC[C@H]1[C@H](C)C(=O)O[C@H]21 (stereo partly specified) | 100% | 21.2% |  |  |
| CC(=O)O[C@]1(C)CC[C@H]2[C@H](C)C(=O)O[C@@H]2C2=C(C)[C@@H](O)CC21 (stereo partly specified) | 100% | 0% |  |  |
| CC1=C2C(C[C@@H]1OC(=O)/C=C/c1ccc(F)cc1)[C@](C)(O)CC[C@H]1[C@H](C)C(=O)O[C@H]21 (stereo partly specified) | 100% | 31.6% |  |  |
| CC1=C2C(C[C@@H]1OC(=O)/C=C/c1ccc(C)cc1)[C@](C)(O)CC[C@H]1[C@H](C)C(=O)O[C@H]21 (stereo partly specified) | 100% | 58.8% | 29 µM | 76.5 µM |
| CC1=C2C(C[C@@H]1OC(=O)/C=C/c1ccc(Cl)cc1)[C@](C)(O)CC[C@H]1[C@H](C)C(=O)O[C@H]21 (stereo partly specified) | 100% | 82% | 22.3 µM | 59.2 µM |
| CC1=C2C(C[C@@H]1OC(=O)c1ccccn1)[C@](C)(O)CC[C@H]1[C@H](C)C(=O)O[C@H]21 (stereo partly specified) | 100% | 0% |  |  |
| CC1=C2C(C[C@@H]1OC(=O)/C=C/c1ccc(Br)cc1)[C@](C)(O)CC[C@H]1[C@H](C)C(=O)O[C@H]21 (stereo partly specified) | 97.8% | 85.2% | 18.3 µM | 60.2 µM |
| CC1=C2C(C[C@@H]1OC(=O)/C=C/c1ccc(C#N)cc1)[C@](C)(O)CC[C@H]1[C@H](C)C(=O)O[C@H]21 (stereo partly specified) | 100% | 31.4% |  |  |
| CC1=C2C(C[C@@H]1OC(=O)c1ccc(OC(F)(F)F)cc1)[C@](C)(O)CC[C@H]1[C@H](C)C(=O)O[C@H]21 (stereo partly specified) | 97.5% | 30.6% |  |  |
| CC1=C2C(C[C@@H]1OC(=O)c1ccc(C(C)C)cc1)[C@](C)(O)CC[C@H]1[C@H](C)C(=O)O[C@H]21 (stereo partly specified) | 74.7% | 53.3% |  |  |
| CC1=C2C(C[C@@H]1OC(=O)c1ccco1)[C@](C)(O)CC[C@H]1[C@H](C)C(=O)O[C@H]21 (stereo partly specified) | 100% | 2.2% |  |  |
| COc1ccc(C(=O)O[C@H]2CC3C(=C2C)[C@H]2OC(=O)[C@@H](C)[C@@H]2CC[C@@]3(C)O)cc1 (stereo partly specified) | 98% | 6.6% |  |  |
| CC1=C2C(C[C@@H]1OC(=O)/C=C/c1ccc(N(C)C)cc1)[C@](C)(O)CC[C@H]1[C@H](C)C(=O)O[C@H]21 (stereo partly specified) | 100% | 44.5% |  |  |

| SMILES | viability at 18 h [1] | inhibition at 25 µM [2] | IC50 [3] | IC50 [4] |
| --- | --- | --- | --- | --- |
| CC1=C2C(C[C@@H]1OC(=O)c1ccc(C(C)(C)C)cc1)[C@](C)(O)CC[C@H]1[C@H](C)C(=O)O[C@H]21 (stereo partly specified) | 52.1% | 76.3% | 14.8 µM | 29.1 µM |
| CC1=C2C(C[C@@H]1OC(=O)c1ccc(Br)cc1)[C@](C)(O)CC[C@H]1[C@H](C)C(=O)O[C@H]21 (stereo partly specified) | 98.1% | 28.1% |  |  |
| CCCCCc1ccc(C(=O)O[C@H]2CC3C(=C2C)[C@H]2OC(=O)[C@@H](C)[C@@H]2CC[C@@]3(C)O)cc1 (stereo partly specified) | 79.3% | 29.8% |  |  |
| COc1ccc(/C=C/C(=O)O[C@H]2CC3C(=C2C)[C@H]2OC(=O)[C@@H](C)[C@@H]2CC[C@@]3(C)O)cc1 (stereo partly specified) | 100% | 19.3% |  |  |
| CC1=C2C(C[C@@H]1O)[C@](C)(O)CC[C@H]1[C@H](C)C(=O)O[C@H]21 (stereo partly specified) | 100% | 0% |  |  |
| CC1=C2C(C[C@@H]1OC(=O)c1cccc3ccccc13)[C@](C)(O)CC[C@H]1[C@H](C)C(=O)O[C@H]21 (stereo partly specified) | 67.4% | 79.6% | 6.98 µM | 7.52 µM |
| CC(=O)O[C@]1(C)CC[C@H]2[C@H](C)C(=O)O[C@@H]2C2=C(C)C(=O)CC21 (stereo partly specified) | 100% | 6.9% |  |  |
| CCCOc1ccc(/C=C/C(=O)O[C@H]2CC3C(=C2C)[C@H]2OC(=O)[C@@H](C)[C@@H]2CC[C@@]3(C)O)cc1 (stereo partly specified) | 43.1% | 19.3% |  |  |
| CC1=C2C(C[C@@H]1OC(=O)c1ccc(Cl)cc1)[C@](C)(O)CC[C@H]1[C@H](C)C(=O)O[C@H]21 (stereo partly specified) | 100% | 19.6% |  |  |
| CC1=C2C(C[C@@H]1OC(=O)c1ccc(I)cc1)[C@](C)(O)CC[C@H]1[C@H](C)C(=O)O[C@H]21 (stereo partly specified) | 93% | 46.5% |  |  |
| N=C(N)NN [PIMAGEDINE] | 100% | 83.8% | 8.68 µM |  |
| CC1=C2C(C[C@@H]1OC(=O)c1ccsc1)[C@](C)(O)CC[C@H]1[C@H](C)C(=O)O[C@H]21 (stereo partly specified) | 93.9% | 6.7% |  |  |
| CC1=C2C(CC1=O)[C@](C)(O)CC[C@H]1[C@H](C)C(=O)O[C@H]21 (stereo partly specified) | 100% | 0% |  |  |
| CC1=C2C(C[C@@H]1OC(=O)c1ccc([N+](=O)[O-])cc1)[C@](C)(O)CC[C@H]1[C@H](C)C(=O)O[C@H]21 (stereo partly specified) | 100% | 1.8% |  |  |
| CC1=C2C(C[C@@H]1OC(=O)c1cccs1)[C@](C)(O)CC[C@H]1[C@H](C)C(=O)O[C@H]21 (stereo partly specified) | 100% | 0% |  |  |
| CC1=C2C(C[C@@H]1OC(=O)c1ccc(F)cc1)[C@](C)(O)CC[C@H]1[C@H](C)C(=O)O[C@H]21 (stereo partly specified) | 100% | 19.4% |  |  |
| CC1=C2C(C[C@@H]1OC(=O)c1cccnc1)[C@](C)(O)CC[C@H]1[C@H](C)C(=O)O[C@H]21 (stereo partly specified) | 86.9% | 6.1% |  |  |
| CC1=C2C(C[C@@H]1OC(=O)c1ccc(C(F)(F)F)cc1)[C@](C)(O)CC[C@H]1[C@H](C)C(=O)O[C@H]21 (stereo partly specified) | 100% | 20.4% |  |  |
| CC1=C2C(C[C@@H]1OC(=O)c1ccc3ncccc3c1)[C@](C)(O)CC[C@H]1[C@H](C)C(=O)O[C@H]21 (stereo partly specified) | 100% | 23.2% |  |  |
| CC1=C2C(C[C@@H]1OC(=O)/C=C/c1ccc(C(F)(F)F)cc1)[C@](C)(O)CC[C@H]1[C@H](C)C(=O)O[C@H]21 (stereo partly specified) | 100% | 75.9% | 17.4 µM | 54.9 µM |
| CCCCc1ccc(C(=O)O[C@H]2CC3C(=C2C)[C@H]2OC(=O)[C@@H](C)[C@@H]2CC[C@@]3(C)O)cc1 (stereo partly specified) | 72.6% | 33.2% |  |  |
